Experimental data: PMC11988454, “Discovery of synthetic small molecules targeting the central regulator of Salmonella pathogenicity” (Science Advances, 2025)

How the values were obtained:
HilD [1] = biological target: T1, HilD (Salmonella typhimurium, UniProt P0CL08); experiment: SEC-MALS of HilD; parameters: species or system S. Typhimurium
T1 construct: His6-SUMO (N, cleaved yes); made in house; host or cells: E. coli C41(DE3)
Experimental: SEC-MALS experiments were performed using a Superdex 75 Increase 10/300 GL column (Cytiva) coupled to a miniDAWN Tristar Laser photometer (Wyatt) and a RI-2031 differential refractometer (JASCO). HilD (100 μM) was incubated with 1% (v/v) of either DMSO or C26 (10 mM dissolved in DMSO) for 20 min at r.t. Fifty microliters of HilD samples was loaded onto the SEC column, equilibrated with SEC buffer, and separated using a flow rate of 0.5 ml min^−1. Data analysis was carried out with the ASTRA v7.3.0.18 software (Wyatt).

[2] = system: T3SS-2 (SseF-HiBiT secretion); experiment: SseF-HiBiT injection assay in LgBiT-expressing RAW 264.7 macrophages; type: cell-based, S. Typhimurium; conditions: C26 100 μM, inside RAW 264.7 macrophages, 7 hours after infection, MOI 10
Experimental: SseF injection assay was performed using the split-Nanoluc (HiBiT/LgBiT) system as described for SipA. In a white 96-well plate (NUNC) with optical bottom, 10^4 LgBiT-expressing RAW 264.7 macrophages ([65]) were seeded in 100 μl of DMEM, 24 hours before the infection. The strain harboring the plasmid-encoded sseF-HiBiT and the isogenic strain ΔssaV were grown in LB-NaCl at 37°C at 180 rpm until an OD600 of 0.9. Bacteria were washed twice with HBSS (Serva) and then used to infect preseeded cells on a 96-well plate with an MOI of 10. The plate was centrifuged at 300g for 3 min and then incubated for 30 min to allow invasion. Afterward, macrophages were washed with DMEM and incubated for 1 hour in DMEM supplemented with gentamicin (100 μg/ml) to eliminate noninvading bacteria. The medium was replaced by DMEM with gentamicin (16 μg/ml), supplemented with either DMSO (1%) or C26 at different concentrations. Cells were incubated at 37°C with 5% (v/v) CO2 for 5.5 hours (total infection time of 7 hours) and then washed twice with 1x PBS before luminescence measurements were carried out following the manufacturer’s instructions.

S. Typhimurium SL1344 = experiment: Growth in LB medium (OD at 600 nm); type: cell-based; conditions: C26 at different concentrations
From the text: Experiment performed in a 96-well plate. Growth assessed by measuring the OD at 600 nm (N = 3 biological replicates).

HilD dimer = biological target: T2, HilD dimer (Salmonella typhimurium, UniProt P0CL08); experiment: BS3 cross-linking of HilD; type: biochemical, S. Typhimurium; conditions: oleic acid 50 and 100 μM; C26 up to 200 μM
T2 construct: His6-SUMO (N, cleaved yes); made in house; host or cells: E. coli C41(DE3)
T2 sequence (P0CL08 whole entry): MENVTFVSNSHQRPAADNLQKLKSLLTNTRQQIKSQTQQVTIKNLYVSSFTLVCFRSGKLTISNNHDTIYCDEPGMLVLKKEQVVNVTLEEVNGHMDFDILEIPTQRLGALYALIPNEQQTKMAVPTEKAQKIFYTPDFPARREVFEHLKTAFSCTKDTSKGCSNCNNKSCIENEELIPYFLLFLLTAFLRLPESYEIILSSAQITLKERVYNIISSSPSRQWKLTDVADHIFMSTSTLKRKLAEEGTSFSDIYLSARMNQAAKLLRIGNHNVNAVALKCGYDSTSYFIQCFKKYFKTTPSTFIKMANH
Experimental: BS^3 cross-linking of HilD was performed as previously described ([39]). In summary, HilD (10 μM) was first incubated with C26 or oleic acid in SEC buffer for 20 min at r.t., with a final DMSO concentration of 1% (v/v). HilD was then cross-linked by incubation with 0.2 mM BS^3 (Thermo Fisher Scientific, Pierce, A39266) at r.t. for 1 hour, before the reaction was quenched by the addition of 50 mM Tris (pH 7.5). Samples were analyzed using SDS-PAGE and visualized by silver staining.

HilD [3] = biological target: T3, HilD (Salmonella typhimurium, UniProt E1WAC0); experiment: Whole-cell HilD activity assay (PhilA-sfGFP activation); type: cell-based, S. Typhimurium; conditions: C26 100 μM, strain overexpressing hilD
T3 construct: Strain PhilA-sfGFP and the isogenic ΔhilD PhilA-sfGFP were used for this purpose; endogenous in cells; host or cells: S. Typhimurium SL1344 strain PhilA-sfGFP
T3 sequence (E1WAC0 whole entry): as the sequence (P0CL08 whole entry) above

[4] = system: T3SS-1 (SipA-HiBiT injection into HeLa cells); experiment: SipA-HiBiT injection assay (split NanoLuc HiBiT/LgBiT); type: cell-based, S. Typhimurium
Experimental: SipA injection assay was performed using the split-Nanoluc (HiBiT/LgBiT) system as described previously ([37], [38]). In brief, NanoLuc is split into two parts: LgBiT, comprising 10 of the 11 β strands of the luciferase, and HiBiT, a short peptide with high affinity to LgBiT, contributing the missing β strand to make a functional luciferase. S. Typhimurium strains expressing SipA-HiBiT were grown in LB supplemented with 0.3 M NaCl and either compound at different concentrations or 1% (v/v) DMSO. Cultures were incubated at 37°C with shaking at 180 rpm until an OD600 of 0.9 was reached. Bacteria were then pelleted and washed twice with Hanks’ balanced salt solution (HBSS). The bacterial suspension was diluted to obtain a multiplicity of infection (MOI) of 50 and then used to infect the LgBiT-expressing HeLa cell. Luminescence was measured using a Tecan Sparc Multimode reader.

HilD [5] = biological target: T1, HilD; experiment: EMSA, binding to hilA promoter, HilD; type: biochemical, S. Typhimurium
Experimental: EMSAs were performed similarly to as described previously ([39]) using a 62–base pair double-stranded (dsDNA) fragment of the hilA promoter, encompassing the A1 binding site ([82]). dsDNA fragments were generated by melting the complementary primers PhilA_A1_f / PhilA_A1_r (table S10) together in TE buffer [10 mM Tris (pH 8.0) and 1 mM EDTA] at 95°C for 10 min before slowly cooling to r.t. The forward primer was modified with a 5′-Cy5 fluorescent dye for detection. The protein (600 nM) was incubated with 50 nM labeled DNA in EMSA buffer [20 mM Tris (pH 8.0), 100 mM KCl, 100 μM EDTA, and 3% glycerol]. C26 was diluted first in DMSO and subsequently 1:100 into the protein-DNA sample. Samples were incubated at 37°C for 15 min, supplemented with diluted DNA loading dye, and separated on a 1.5-mm-thick, 6% (w/v) TBE polyacrylamide gel at 6°C at a constant voltage of 100 V. Gels were imaged using a ChemiDocMP imaging system (Bio-Rad).

HilD mutants = experiment: Alanine scan, plasmid-based whole-cell PhilA activation assay; parameters: species or system S. Typhimurium; conditions: C26 100 μM
Experimental: A plasmid-based assay in a ΔSPI-1 background strain was developed to facilitate the introduction of point mutations in hilD. The Rha cassette (rhaS, rhaR, and Prha) was first deleted from the pT10 backbone ([67]). The fragment PhilD-hilD-PhilA-sfGFP was then inserted upstream of the terminator rrnB. hilD was then deleted from the resulting plasmid to serve as a negative control. Site-directed mutagenesis was performed using KOD polymerase (Novagen). The cell-based fluorescence assay was performed as described above. Statistical analysis was performed by applying a first Bonferroni’s multiple comparisons test to compare treated and untreated conditions within each strain (shown in Fig. 4E) and a second same test to compare the treated mutants to the treated WT condition. The absence of significance in both tests corresponds to mutations inactivating HilD. Significance in the first but not the second test corresponds to a phenotype similar to that of the WT.

T1 sequence (P0CL08 whole entry): as above

## CN(CC(=O)NCc1ccc2c(c1)OCO2)Cc1ccc(Br)s1 [C26, N-(benzo[d][1,3]dioxol-5-ylmethyl)-2-{[(5-bromothiophen-2-yl)methyl](methyl)amino}acetamide]
HilD [1]; HilD + C26 100 μM, theoretical dimer 70.4
  Molecular Mass of HilD, Measured: 69.8 kDa
HilD [1]; equimolar C26 (100 μM)
  oligomerization state of HilD: no effect on the oligomerization state
[2]
  SseF-HiBiT secretion, % of the control: 37%
S. Typhimurium SL1344
  growth of S. Typhimurium: did not impair the growth
HilD dimer
  levels of cross-linked HilD dimer: did not affect the levels of cross-linking
HilD [3]; WT background
  decrease of PhilA activation: 14%
HilD [3]; ΔhilD ΔhilC ΔrtsA background
  decrease of PhilA activation: 18%
[4]; C26 100 μM added to bacterial culture, 1 hour postinfection, MOI 50
  residual SipA injection: 11%
[4]; C26 100 μM only in infection inoculum, 1 hour postinfection, MOI 50
  SipA injection, % of the untreated bacteria: 48%
[4]; C26 added to bacterial culture
  SipA injection into HeLa cells over a 5-hour infection time: dose-dependent decrease
HilD [5]
  DNA binding activity of HilD (hilA promoter): dose-dependent inhibition of the DNA binding activity
HilD mutants
  sensitivity of HilD I42A, I100A, N260A, K264A to C26: partial loss of sensitivity
  sensitivity of HilD L45A, Y46A, F98A, E102A, Y212A to C26: full loss of sensitivity
